Experimental data taken from patent US9993494B2, “Compositions and methods for treating fibrotic disease” (eFFECTOR Therapeutics, Inc., priority 2014, dated 2018).

Test system: normal human lung fibroblasts
Assay: Ribosomal profiling: translational efficiency in TGFβ-treated fibroblasts
Type: cell-based
Method: Ribosomal profiling allows for measurement of changes in transcription and translation on a genome-wide basis accompanying TGFβ-dependent transformation of fibroblasts to myofibroblasts. Ribosomal profiles of the TGFβ-treated fibroblasts from Example 1 (about 6×10^6 cells/10 cm plate) were prepared and analyzed for changes in translational efficiencies with respect to potential disease-associated cellular changes accompanying this TGFβ-induced transformation.
Briefly, cells were washed with cold PBS supplemented with cycloheximide and lysed with 1× mammalian cell lysis buffer for 10 minutes on ice. Lysates were clarified by centrifugation for 10 minutes at 14,000 rpm and supernatants were collected. Cell lysates were processed to generate ribosomal protected fragments and total mRNA according to the instructions included with the ARTseq Ribosome Profiling Kit (Illumina, San Diego, Calif.). Sequencing of total RNA (RNA) and of ribosome-protected fragments of RNA (RPF) was carried out using RNA-Seq methodology according to the manufacturer's instructions (Illumina). To analyze the ribosomal profiles, RNA-Seq reads were processed with tools from the FASTX-Toolkit (fastq_quality_trimmer, fastx_clipper and fastx_trimmer). Unprocessed and processed reads were evaluated for a variety of quality measures using FastQC, and processed reads were mapped to the human genome using TopHat (see, e.g., Trapnell et al., Bioinformatics 25:1105, 2009). Gene-by-gene assessment of the number of fragments strictly and uniquely mapping to the coding region of each gene was conducted using HTSeq-count, a component of the HTSeq package. […] Genes with low counts in either RPF or RNA were excluded from differential analyses. Pathway and network analyses of differential data were conducted using Ingenuity Pathway Analysis (IPA).

TGFβ
Log2 TE RPS8 (ENSG00000142937, 5 replicates): 1.611
Log2 TE ACTA1 (ENSG00000143632, 5 replicates): −2.018
change in translational profile of ACTA1 caused by TGFβ (ENSG00000143632, Control vs. TGFβ): A (A = <−2.5)
Log2 TE PLEKHA6 (ENSG00000143850, 5 replicates): −2.069
change in translational profile of PLEKHA6 caused by TGFβ (ENSG00000143850, Control vs. TGFβ): B (B = <−1.5 to −2.5)
Log2 TE RPS27A (ENSG00000143947, 5 replicates): 1.275
Log2 TE AFF3 (ENSG00000144218, 5 replicates): 1.146
Log2 TE RPL32 (ENSG00000144713, 5 replicates): 1.916
change in translational profile of RPL32 caused by TGFβ (ENSG00000144713, Control vs. TGFβ): E (E = <1.5 to 2.5)
Log2 TE NICN1 (ENSG00000145029, 5 replicates): 1.403
Log2 TE RPS3A (ENSG00000145425, 5 replicates): 1.661
Log2 TE RPL37 (ENSG00000145592, 5 replicates): 1.808
change in translational profile of RPL37 caused by TGFβ (ENSG00000145592, Control vs. TGFβ): E (E = <1.5 to 2.5)
Log2 TE BTF3 (ENSG00000145741, 5 replicates): 1.13
change in translational profile of BTF3 caused by TGFβ (ENSG00000145741, Control vs. TGFβ): D (D = <1.0 to 1.5)
Log2 TE HIGD2A (ENSG00000146066, 5 replicates): 1.196
change in translational profile of HIGD2A caused by TGFβ (ENSG00000146066, Control vs. TGFβ): D (D = <1.0 to 1.5)
Log2 TE SLC2A12 (ENSG00000146411, 5 replicates): −1.9708
change in translational profile of CREB5 caused by TGFβ (ENSG00000146592, Control vs. TGFβ): D (D = <1.0 to 1.5)
Log2 TE ZNF92 (ENSG00000146757, 5 replicates): −1.238
Log2 TE DENND2A (ENSG00000146966, 5 replicates): −1.156
change in translational profile of DENND2A caused by TGFβ (ENSG00000146966, Control vs. TGFβ): C (C = <−1.0 to −1.5)
Log2 TE RPL10 (ENSG00000147403, 5 replicates): 1.691
change in translational profile of RPL10 caused by TGFβ (ENSG00000147403, Control vs. TGFβ): E (E = <1.5 to 2.5)
Log2 TE EIF3H (ENSG00000147677, 5 replicates): 1.329
change in translational profile of EIF3H caused by TGFβ (ENSG00000147677, Control vs. TGFβ): E (E = <1.5 to 2.5)
Log2 TE SHC3 (ENSG00000148082, 5 replicates): −1.541
Log2 TE RPL7A (ENSG00000148303, 5 replicates): 1.65
change in translational profile of RPL7A caused by TGFβ (ENSG00000148303, Control vs. TGFβ): E (E = <1.5 to 2.5)
change in translational profile of EIF3M caused by TGFβ (ENSG00000149100, Control vs. TGFβ): D (D = <1.0 to 1.5)
Log2 TE RPS3 (ENSG00000149273, 5 replicates): 1.518
change in translational profile of JPH2 caused by TGFβ (ENSG00000149596, Control vs. TGFβ): F (F = >2.5)
change in translational profile of FAU caused by TGFβ (ENSG00000149806, Control vs. TGFβ): D (D = <1.0 to 1.5)
Log2 TE CCDC102B (ENSG00000150636, 5 replicates): −2.977
change in translational profile of CCDC102B caused by TGFβ (ENSG00000150636, Control vs. TGFβ): A (A = <−2.5)
change in translational profile of FRMD4A caused by TGFβ (ENSG00000151474, Control vs. TGFβ): C (C = <−1.0 to −1.5)
Log2 TE CCDC122 (ENSG00000151773, 5 replicates): −1.004
Log2 TE TMEM178 (ENSG00000152154, 5 replicates): 2.016
Log2 TE HOMER1 (ENSG00000152413, 5 replicates): 1.003
change in translational profile of HOMER1 caused by TGFβ (ENSG00000152413, Control vs. TGFβ): D (D = <1.0 to 1.5)
Log2 TE PLEKHH2 (ENSG00000152527, 5 replicates): −1.389
change in translational profile of PLEKHH2 caused by TGFβ (ENSG00000152527, Control vs. TGFβ): B (B = <−1.5 to −2.5)
Log2 TE UTRN (ENSG00000152818, 5 replicates): −1.085
Log2 TE PTPRD (ENSG00000153707, 5 replicates): −1.186
change in translational profile of ANKH caused by TGFβ (ENSG00000154122, Control vs. TGFβ): D (D = <1.0 to 1.5)
Log2 TE ABCA6 (ENSG00000154262, 5 replicates): −2.167
change in translational profile of ABCA6 caused by TGFβ (ENSG00000154262, Control vs. TGFβ): A (A = <−2.5)
change in translational profile of OBSCN caused by TGFβ (ENSG00000154358, Control vs. TGFβ): B (B = <−1.5 to −2.5)
Log2 TE NCAM2 (ENSG00000154654, 5 replicates): −1.135
change in translational profile of ADAMTS5 caused by TGFβ (ENSG00000154736, Control vs. TGFβ): C (C = <−1.0 to −1.5)
change in translational profile of OXA1L caused by TGFβ (ENSG00000155463, Control vs. TGFβ): D (D = <1.0 to 1.5)
Log2 TE C9orf85 (ENSG00000155621, 5 replicates): 1.112
change in translational profile of C9orf85 caused by TGFβ (ENSG00000155621, Control vs. TGFβ): D (D = <1.0 to 1.5)
Log2 TE FMN2 (ENSG00000155816, 5 replicates): −1.246
Log2 TE CLIC2 (ENSG00000155962, 5 replicates): −2.392
Log2 TE UQCRB (ENSG00000156467, 5 replicates): 1.048
Log2 TE RPL30 (ENSG00000156482, 5 replicates): 1.622
change in translational profile of RPL30 caused by TGFβ (ENSG00000156482, Control vs. TGFβ): E (E = <1.5 to 2.5)
